Measurements taken from patent US6642238B2, “Oxazolidinone thioamides with piperazine amide substituents” (Pharmacia and Upjohn Company, priority 2000, dated 2003).
Converted amounts (≈) assume the structure as drawn.

Key:
[1] = tested on: Enterococcus faecalis (EFAE 9217); assay: MIC by agar dilution, EFAE 9217; assay type: cell-based; conditions: Enterococcus faecalis, Minimum Inhibitory Concentration, strain EFAE 9217
Text: (§1) The oxazolidinone antibacterial agents of this invention have useful activity against a variety of organisms. The in vitro activity of compounds of this invention can be assessed by standard testing procedures such as the determination of minimum inhibitory concentration (MIC) by agar dilution as described in “Approved Standard. Methods for Dilution Antimicrobial Susceptibility Tests for Bacteria That Grow Aerobically”, 3rd. ed., published 1993 by the National Committee for Clinical Laboratory Standards, Villanova, Pa., USA. The activity of compounds of this invention against Staphylococcus aureus, Staphylococcus epidermidis, Streptococcus pneumoniae, Streptococcus pyogens, Enterococcus faecalis, Moraxella catarrhalis and H. influenzae is shown in Table 1.

[2] = tested on: H. influenzae (HINF 30063); assay: MIC by agar dilution, HINF 30063; assay type: cell-based; conditions: Haemophilus influenzae, Minimum Inhibitory Concentration, strain HINF 30063
Text: as §1

[3] = tested on: Enterococcus faecalis (EFAE 12712); assay: MIC by agar dilution, EFAE 12712; assay type: cell-based; conditions: Enterococcus faecalis, Minimum Inhibitory Concentration, strain EFAE 12712
Text: as §1

[4] = tested on: Streptococcus pneumoniae (SPNE 9912); assay: MIC by agar dilution, SPNE 9912; assay type: cell-based; conditions: Streptococcus pneumoniae, Minimum Inhibitory Concentration, strain SPNE 9912
Text: as §1

[5] = tested on: Moraxella catarrhalis (MCAT 30607); assay: MIC by agar dilution, MCAT 30607; assay type: cell-based; conditions: Moraxella catarrhalis, Minimum Inhibitory Concentration, strain MCAT 30607
Text: as §1

[6] = tested on: Streptococcus pyogens (SPYO 152); assay: MIC by agar dilution, SPYO 152; assay type: cell-based; conditions: Streptococcus, Minimum Inhibitory Concentration, strain SPYO 152
Text: as §1

[7] = tested on: Staphylococcus epidermidis (SEPI 30593); assay: MIC by agar dilution, SEPI 30593; assay type: cell-based; conditions: Staphylococcus epidermidis, Minimum Inhibitory Concentration, strain SEPI 30593
Text: as §1

[8] = tested on: Staphylococcus aureus (SAUR 9213); assay: MIC by agar dilution, SAUR 9213; assay type: cell-based; conditions: Staphylococcus aureus, Minimum Inhibitory Concentration, strain SAUR 9213
Text: as §1

| melting point | MIC [1] [µg/mL] | MIC [2] [µg/mL] | MIC [3] [µg/mL] | MIC [4] [µg/mL] | MIC [5] [µg/mL] | MIC [6] [µg/mL] | MIC [7] [µg/mL] | MIC [8] [µg/mL] | Structure (SMILES) |
| --- | --- | --- | --- | --- | --- | --- | --- | --- | --- |
| 142 °C (dec.) | 0.5 (≈ 1.1 µM) | 8 (≈ 17.6 µM) | 1 (≈ 2.2 µM) | 0.5 (≈ 1.1 µM) | 2 (≈ 4.4 µM) | 0.5 (≈ 1.1 µM) | 0.5 (≈ 1.1 µM) | 4 (≈ 8.8 µM) | CCC(=S)NC[C@H]1CN(c2ccc(N3CCN(C(=O)[C@@H](O)CO)CC3)c(F)c2)C(=O)O1 [EX 16, N-({(5S)-3-[3-fluoro-4-[4-((2S)-2,3-dihydroxypropanoyl)-1-piperazinyl]phenyl]-2-oxo-1,3-oxazolidin-5-yl}methyl)propanethioamide] |
| 132 °C (dec.) | 0.5 (≈ 1.1 µM) | 8 (≈ 17.6 µM) | 1 (≈ 2.2 µM) | 0.25 (≈ 0.55 µM) | 2 (≈ 4.4 µM) | 0.5 (≈ 1.1 µM) | 0.5 (≈ 1.1 µM) | 4 (≈ 8.8 µM) | CCC(=S)NC[C@H]1CN(c2ccc(N3CCN(C(=O)[C@H](O)CO)CC3)c(F)c2)C(=O)O1 [EX 17, N-({(5S)-3-[3-fluoro-4-[4-((2R)-2,3-dihydroxypropanoyl)-1-piperazinyl]phenyl]-2-oxo-1,3-oxazolidin-5-yl}methyl)propanethioamide] |
| 174 to 175 °C | 2 (≈ 3.89 µM) | > 64 | 2 (≈ 3.89 µM) | < 0.5 | 8 (≈ 15.5 µM) | 1 (≈ 1.94 µM) | 2 (≈ 3.89 µM) | 2 (≈ 3.89 µM) | CCC(=S)NC[C@H]1CN(c2ccc(N3CCN(C(=O)[C@@H](O)Cc4ccccc4)CC3)c(F)c2)C(=O)O1 [EX 19, N-[((5S)-3-{3-fluoro-4-[4-((2S)-2-hydroxy-3-phenylpropanoyl)-1-piperazinyl]phenyl}-2-oxo-1,3-oxazolidin-5-yl)methyl]propanethioamide] |
| 128 to 130 °C (dec.) | 1 (≈ 1.94 µM) | 64 (≈ 124 µM) | 1 (≈ 1.94 µM) | < 0.5 | 4 (≈ 7.77 µM) | 1 (≈ 1.94 µM) | 1 (≈ 1.94 µM) | 1 (≈ 1.94 µM) | CCC(=S)NC[C@H]1CN(c2ccc(N3CCN(C(=O)[C@H](O)Cc4ccccc4)CC3)c(F)c2)C(=O)O1 [EX 20, N-[((5S)-3-{3-fluoro-4-[4-((2R)-2-hydroxy-3-phenylpropanoyl)-1-piperazinyl]phenyl}-2-oxo-1,3-oxazolidin-5-yl)methyl]propanethioamide] |
